± gives the standard deviation of the averaged measurements.
Key:
[1] = compound: CCN(CC)CCCCNc1ncc2cc(-c3cc(OC)cc(OC)c3)c(NC(=O)NC(C)(C)C)nc2n1; assay: surviving fraction relative to DMSO-only wells; higher = less growth inhibition; conditions: exposure time: 5 days
Method in brief: (§1)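 Viability was determined by CellTiter-Glo luminescence, expressed as surviving fraction normalised to the median of DMSO-only wells. The cells were log-phase tumour cell lines seeded at 250–500 per well in 384-well plates and, after 24 hours, exposed continuously for five days to inhibitors at 0.5, 1, 5, 10, 50, 100, 500 and 1000 nM. Three screens per line were run, keeping only lines with replicate Pearson r >0.7 and median Z' >0.3.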

[2] = compound: Nc1ncn([C@H]2C[C@H](O)[C@@H](CO)O2)c(=O)n1 [DECITABINE]; assay: as above; conditions: exposure time: 5 days
Method in brief: as §1

## SCC47 HEADNECK
[1]; 0.5 nM
  surviving fraction: 0.979 ± 0.033
[1]; 1 nM
  surviving fraction: 0.993 ± 0.082
[1]; 5 nM
  surviving fraction: 0.996 ± 0.05
[1]; 10 nM
  surviving fraction: 1.07 ± 0.047
[1]; 50 nM
  surviving fraction: 0.968 ± 0.079
[1]; 100 nM
  surviving fraction: 1 ± 0.14
[1]; 500 nM
  surviving fraction: 1.05 ± 0.067
[1]; 1000 nM
  surviving fraction: 0.995 ± 0.019
[2]; 0.5 nM
  surviving fraction: 1.07 ± 0.084
[2]; 1 nM
  surviving fraction: 1.08 ± 0.13
[2]; 5 nM
  surviving fraction: 1.08 ± 0.012
[2]; 10 nM
  surviving fraction: 1.09 ± 0.067
[2]; 50 nM
  surviving fraction: 1.03 ± 0.058
[2]; 100 nM
  surviving fraction: 1.03 ± 0.03
[2]; 500 nM
  surviving fraction: 0.973 ± 0.028
[2]; 1000 nM
  surviving fraction: 0.863 ± 0.1

## HELA CERVIX
[1]; 0.5 nM
  surviving fraction: 0.979 ± 0.028
[1]; 1 nM
  surviving fraction: 0.994 ± 0.034
[1]; 5 nM
  surviving fraction: 0.971 ± 0.042
[1]; 10 nM
  surviving fraction: 0.984 ± 0.019
[1]; 50 nM
  surviving fraction: 1.03 ± 0.047
[1]; 100 nM
  surviving fraction: 1.07 ± 0.065
[1]; 500 nM
  surviving fraction: 1.06 ± 0.023
[1]; 1000 nM
  surviving fraction: 1.13 ± 0.075
[2]; 0.5 nM
  surviving fraction: 1.03 ± 0.043
[2]; 1 nM
  surviving fraction: 0.9852 ± 0.0096
[2]; 5 nM
  surviving fraction: 1.05 ± 0.043
[2]; 10 nM
  surviving fraction: 1 ± 0.017
[2]; 50 nM
  surviving fraction: 1.1 ± 0.03
[2]; 100 nM
  surviving fraction: 1.08 ± 0.017
[2]; 500 nM
  surviving fraction: 1.15 ± 0.065
[2]; 1000 nM
  surviving fraction: 0.944 ± 0.032

## MDAMB231 BREAST
[1]; 0.5 nM
  surviving fraction: 0.974 ± 0.03
[1]; 1 nM
  surviving fraction: 0.975 ± 0.026
[1]; 5 nM
  surviving fraction: 0.9813 ± 0.0094
[1]; 10 nM
  surviving fraction: 1.01 ± 0.02
[1]; 50 nM
  surviving fraction: 0.995 ± 0.026
[1]; 100 nM
  surviving fraction: 1.01 ± 0.034
[1]; 500 nM
  surviving fraction: 1.01 ± 0.035
[1]; 1000 nM
  surviving fraction: 0.983 ± 0.022
[2]; 0.5 nM
  surviving fraction: 1 ± 0.034
[2]; 1 nM
  surviving fraction: 0.986 ± 0.024
[2]; 5 nM
  surviving fraction: 1.01 ± 0.028
[2]; 10 nM
  surviving fraction: 1 ± 0.022
[2]; 50 nM
  surviving fraction: 1.01 ± 0.021
[2]; 100 nM
  surviving fraction: 0.965 ± 0.013
[2]; 500 nM
  surviving fraction: 0.865 ± 0.016
[2]; 1000 nM
  surviving fraction: 0.835 ± 0.039

## PCI30 HEADNECK
[1]; 0.5 nM
  surviving fraction: 0.906 ± 0.074
[1]; 1 nM
  surviving fraction: 0.969 ± 0.09
[1]; 5 nM
  surviving fraction: 0.984 ± 0.11
[1]; 10 nM
  surviving fraction: 1.08 ± 0.058
[1]; 50 nM
  surviving fraction: 1.04 ± 0.054
[1]; 100 nM
  surviving fraction: 1.1 ± 0.1
[1]; 500 nM
  surviving fraction: 0.912 ± 0.011
[1]; 1000 nM
  surviving fraction: 0.995 ± 0.093
[2]; 0.5 nM
  surviving fraction: 1.04 ± 0.03
[2]; 1 nM
  surviving fraction: 1.03 ± 0.052
[2]; 5 nM
  surviving fraction: 0.987 ± 0.053
[2]; 10 nM
  surviving fraction: 1.06 ± 0.034
[2]; 50 nM
  surviving fraction: 0.963 ± 0.065
[2]; 100 nM
  surviving fraction: 0.96 ± 0.079
[2]; 500 nM
  surviving fraction: 0.843 ± 0.056
[2]; 1000 nM
  surviving fraction: 1.08 ± 0.075

## RDES SOFT TISSUE
[1]; 0.5 nM
  surviving fraction: 1.2 ± 0.034
[1]; 1 nM
  surviving fraction: 1.35 ± 0.094
[1]; 5 nM
  surviving fraction: 1.25 ± 0.088
[1]; 10 nM
  surviving fraction: 1.26 ± 0.11
[1]; 50 nM
  surviving fraction: 1.13 ± 0.032
[1]; 100 nM
  surviving fraction: 1.25 ± 0.16
[1]; 500 nM
  surviving fraction: 1.08 ± 0.29
[1]; 1000 nM
  surviving fraction: 1.06 ± 0.1
[2]; 0.5 nM
  surviving fraction: 1.24 ± 0.016
[2]; 1 nM
  surviving fraction: 1.14 ± 0.033
[2]; 5 nM
  surviving fraction: 1.18 ± 0.15
[2]; 10 nM
  surviving fraction: 0.972 ± 0.05
[2]; 50 nM
  surviving fraction: 1.13 ± 0.13
[2]; 100 nM
  surviving fraction: 1.29 ± 0.16
[2]; 500 nM
  surviving fraction: 1.11 ± 0.16
[2]; 1000 nM
  surviving fraction: 1.41 ± 0.28

## SCC003 HEADNECK
[1]; 0.5 nM
  surviving fraction: 0.927 ± 0.046
[1]; 1 nM
  surviving fraction: 1.02 ± 0.055
[1]; 5 nM
  surviving fraction: 1.02 ± 0.092
[1]; 10 nM
  surviving fraction: 1.01 ± 0.086
[1]; 50 nM
  surviving fraction: 0.981 ± 0.037
[1]; 100 nM
  surviving fraction: 1.11 ± 0.091
[1]; 500 nM
  surviving fraction: 1.09 ± 0.13
[1]; 1000 nM
  surviving fraction: 0.988 ± 0.097
[2]; 0.5 nM
  surviving fraction: 1.03 ± 0.038
[2]; 1 nM
  surviving fraction: 1.03 ± 0.032
[2]; 5 nM
  surviving fraction: 1.06 ± 0.067
[2]; 10 nM
  surviving fraction: 1.03 ± 0.055
[2]; 50 nM
  surviving fraction: 0.922 ± 0.047
[2]; 100 nM
  surviving fraction: 0.788 ± 0.032
[2]; 500 nM
  surviving fraction: 0.718 ± 0.032
[2]; 1000 nM
  surviving fraction: 0.635 ± 0.065

## A549 LUNG
[1]; 0.5 nM
  surviving fraction: 0.975 ± 0.015
[1]; 1 nM
  surviving fraction: 0.97 ± 0.049
[1]; 5 nM
  surviving fraction: 0.949 ± 0.036
[1]; 10 nM
  surviving fraction: 0.952 ± 0.042
[1]; 50 nM
  surviving fraction: 0.963 ± 0.01
[1]; 100 nM
  surviving fraction: 1.032 ± 0.0046
[1]; 500 nM
  surviving fraction: 1.006 ± 0.0065
[1]; 1000 nM
  surviving fraction: 1.05 ± 0.061
[2]; 0.5 nM
  surviving fraction: 1.05 ± 0.027
[2]; 1 nM
  surviving fraction: 1.031 ± 0.0066
[2]; 5 nM
  surviving fraction: 1.03 ± 0.017
[2]; 10 nM
  surviving fraction: 0.992 ± 0.016
[2]; 50 nM
  surviving fraction: 1.03 ± 0.017
[2]; 100 nM
  surviving fraction: 1.03 ± 0.03
[2]; 500 nM
  surviving fraction: 1.02 ± 0.036
[2]; 1000 nM
  surviving fraction: 0.908 ± 0.031

## SG28 HEADNECK
[1]; 0.5 nM
  surviving fraction: 1.04 ± 0.15
[1]; 1 nM
  surviving fraction: 1.09 ± 0.076
[1]; 5 nM
  surviving fraction: 1.03 ± 0.09
[1]; 10 nM
  surviving fraction: 1.11 ± 0.034
[1]; 50 nM
  surviving fraction: 0.968 ± 0.028
[1]; 100 nM
  surviving fraction: 1.05 ± 0.1
[1]; 500 nM
  surviving fraction: 0.967 ± 0.091
[1]; 1000 nM
  surviving fraction: 0.938 ± 0.11
[2]; 0.5 nM
  surviving fraction: 1.14 ± 0.054
[2]; 1 nM
  surviving fraction: 1.28 ± 0.038
[2]; 5 nM
  surviving fraction: 1.2 ± 0.062
[2]; 10 nM
  surviving fraction: 1.06 ± 0.098
[2]; 50 nM
  surviving fraction: 1.25 ± 0.14
[2]; 100 nM
  surviving fraction: 1.11 ± 0.045
[2]; 500 nM
  surviving fraction: 1.11 ± 0.13
[2]; 1000 nM
  surviving fraction: 1.065 ± 0.0021

## MDAMB436 BREAST
[1]; 0.5 nM
  surviving fraction: 0.974 ± 0.053
[1]; 1 nM
  surviving fraction: 0.802 ± 0.074
[1]; 5 nM
  surviving fraction: 0.912 ± 0.026
[1]; 10 nM
  surviving fraction: 0.911 ± 0.041
[1]; 50 nM
  surviving fraction: 0.943 ± 0.1
[1]; 100 nM
  surviving fraction: 0.974 ± 0.033
[1]; 500 nM
  surviving fraction: 0.911 ± 0.032
[1]; 1000 nM
  surviving fraction: 0.878 ± 0.032
[2]; 0.5 nM
  surviving fraction: 1.11 ± 0.084
[2]; 1 nM
  surviving fraction: 1.06 ± 0.079
[2]; 5 nM
  surviving fraction: 1 ± 0.12
[2]; 10 nM
  surviving fraction: 0.949 ± 0.09
[2]; 50 nM
  surviving fraction: 0.927 ± 0.11
[2]; 100 nM
  surviving fraction: 0.823 ± 0.064
[2]; 500 nM
  surviving fraction: 0.796 ± 0.048
[2]; 1000 nM
  surviving fraction: 0.685 ± 0.032

## MDAMB157 BREAST
[1]; 0.5 nM
  surviving fraction: 0.85 ± 0.13
[1]; 1 nM
  surviving fraction: 0.935 ± 0.05
[1]; 5 nM
  surviving fraction: 0.898 ± 0.031
[1]; 10 nM
  surviving fraction: 0.993 ± 0.026
[1]; 50 nM
  surviving fraction: 0.856 ± 0.03
[1]; 100 nM
  surviving fraction: 0.68 ± 0.045
[1]; 500 nM
  surviving fraction: 0.467 ± 0.033
[1]; 1000 nM
  surviving fraction: 0.515 ± 0.0087
[2]; 0.5 nM
  surviving fraction: 0.998 ± 0.013
[2]; 1 nM
  surviving fraction: 0.907 ± 0.046
[2]; 5 nM
  surviving fraction: 0.922 ± 0.13
[2]; 10 nM
  surviving fraction: 0.897 ± 0.065
[2]; 50 nM
  surviving fraction: 0.632 ± 0.042
[2]; 100 nM
  surviving fraction: 0.547 ± 0.058
[2]; 500 nM
  surviving fraction: 0.41 ± 0.075
[2]; 1000 nM
  surviving fraction: 0.382 ± 0.059

— the supplement of paper PMC6045584
